What was measured:
[1] = tested on: GLP1R localization with the late endosome marker LAMP1; assay: GLP1R colocalization with late endosome marker LAMP1, confocal microscopy, GLP1R-HEK293 cells; type: cell-based; settings: 100 nM, 30 min; Pearson's correlation coefficient, 3 independent experiments; Figure 6d
Source text: Nuclei were counterstained with DAPI. Nuclei were counterstained with DAPI.

[2] = tested on: GLP1R association with early endosomal-associated antigen 1 (EEA1); assay: GLP1R colocalization with early endosome marker EEA1, confocal microscopy, GLP1R-HEK293 cells; type: cell-based; settings: 100 nM, 30 min; Pearson's correlation coefficient, 3 independent experiments; Figure 5d
Procedure: For immunofluorescence microscopy, GLP1R-HEK293 cells were seeded at a density of 25,000 cells/well in 96-well imaging plates (Greiner Bio-One) coated with poly-D-lysine. […] Twenty-four hours later, the cells were washed once with Optimem + Glutamax (Thermo Fisher Scientific, Watham, MA, USA) + 0.1% bovine serum albumin (BSA) (Sigma-Aldrich, St. Louis, MO, USA), and then incubated with Optimem + 0.1% BSA for 15 min at 37 °C. Compounds were diluted in Optimem + 0.1% BSA and cell incubations were performed at 37 °C for the timepoints indicated. The compounds were removed and the cells were washed three times with phosphate-buffered saline (PBS) prior to fixation for immunofluorescence microscopy or electron microscopy/NanoSIMS as described below. […]
Analysis of confocal microscopy micrographs was performed using scripts developed in Columbus analysis software (PerkinElmer, Waltham, MA, USA). […] Mean fluorescence intensity for the GLP1R staining was measured from this cell membrane ROI. Fluorescence intensities were normalized to those measured from untreated cells and expressed as mean per cell per well. For colocalization analyses, Pearson’s correlation co-efficient was calculated for the correlation between the red and green channels and expressed as mean per cell per well. […]
Pearson’s correlation co-efficient for GLP1R colocalization with EEA1 was calculated from cytoplasmic ROIs (d). […]

## exenatide
[1]
  GLP1R colocalization with LAMP1: increase in the GLP1R colocalization with LAMP1
[2]
  GLP1R colocalization with EEA1: GLP1R colocalization with EEA1 was observed

— publication PMC8876276 (Pharmaceutics, 2022)
